In patent US20250145585A1, “HETEROCYCLIC INHIBITORS OF IGF-1R FOR TREATMENT OF DISEASE” (HORIZON THERAPEUTICS IRELAND DAC, priority 2023, published 2025):

Target: T1, IGF-1R (Homo sapiens, UniProt P08069)
T1 construct: expressed in transfected cells
Test: Example B-1: IGF-1R Assay (PC3 cells stimulated with IGF1, AlphaLISA on cell lysates)
Assay type: cell-based
Settings: compound two hours, IGF1 200 ng/mL for 30 min, read-out: IC50, Biological Activity against IGF-1R (Table B1)
Experimental: 50K PC3 cells were seeded on day 1 in 50 μL of media in 96-well plate and incubated overnight at 37° C., 5% CO2. On day 2, all cells were expected to be at 80-90% confluency. Cells were starved for two hours by changing the media to 90 μL of EMEM serum-free media and incubated for 2 hours. Next, cells were treated with 10 μL of 10× concentrated and 3× serially diluted compounds for two hours. It makes 1× of compounds in 100 μL media. This was followed by stimulation of cells with 11×IGF1 for 30 min in 10 μL of serum-free EMEM media at the final concentration of 200 ng/mL.
The media was removed and replaced by 50 μL of 1× lysis buffer from the AlphaLISA kit (with 1× of cOmplete™ protease inhibitor). The plates were sealed, and cells were allowed to lyse for 10 min in the shaker before storing the plate at −20° C. until used. The AlphaLISA assay with processed cell lysates were performed as described in the protocol. Briefly, 10 μL of the undiluted sample were loaded to 384 well Optiplates and 5 μL of the acceptor mix (as described in the AlphaLISA kit) was added to each well. The plates were sealed and briefly vortexed followed by the incubation at RT for 3 hours. In the dark, 5 μL of donor mix was added to each well. All plates were sealed and stored at RT overnight. The plates were read in EnVision reader using standard AlphaLISA settings.
Compound activity was analyzed using CBIS data analysis suite (Cheminnovation, CA). Percentage inhibition was calculated using the following formula: % I-hibition=100%×(1−(mea−RLU of test sample−mean RLU of vehicle control)/(mean-RLU of EC80 control−mean RLU of vehicle control)). The activity for representative examples of the invention is shown in the following table, wherein A: IC50≤500 nM; B: 500 nM<IC50≤2 μM; C: 2 μM<IC50≤10 μM; D: IC50>10 μM.

T1 sequence (P08069 31-1367): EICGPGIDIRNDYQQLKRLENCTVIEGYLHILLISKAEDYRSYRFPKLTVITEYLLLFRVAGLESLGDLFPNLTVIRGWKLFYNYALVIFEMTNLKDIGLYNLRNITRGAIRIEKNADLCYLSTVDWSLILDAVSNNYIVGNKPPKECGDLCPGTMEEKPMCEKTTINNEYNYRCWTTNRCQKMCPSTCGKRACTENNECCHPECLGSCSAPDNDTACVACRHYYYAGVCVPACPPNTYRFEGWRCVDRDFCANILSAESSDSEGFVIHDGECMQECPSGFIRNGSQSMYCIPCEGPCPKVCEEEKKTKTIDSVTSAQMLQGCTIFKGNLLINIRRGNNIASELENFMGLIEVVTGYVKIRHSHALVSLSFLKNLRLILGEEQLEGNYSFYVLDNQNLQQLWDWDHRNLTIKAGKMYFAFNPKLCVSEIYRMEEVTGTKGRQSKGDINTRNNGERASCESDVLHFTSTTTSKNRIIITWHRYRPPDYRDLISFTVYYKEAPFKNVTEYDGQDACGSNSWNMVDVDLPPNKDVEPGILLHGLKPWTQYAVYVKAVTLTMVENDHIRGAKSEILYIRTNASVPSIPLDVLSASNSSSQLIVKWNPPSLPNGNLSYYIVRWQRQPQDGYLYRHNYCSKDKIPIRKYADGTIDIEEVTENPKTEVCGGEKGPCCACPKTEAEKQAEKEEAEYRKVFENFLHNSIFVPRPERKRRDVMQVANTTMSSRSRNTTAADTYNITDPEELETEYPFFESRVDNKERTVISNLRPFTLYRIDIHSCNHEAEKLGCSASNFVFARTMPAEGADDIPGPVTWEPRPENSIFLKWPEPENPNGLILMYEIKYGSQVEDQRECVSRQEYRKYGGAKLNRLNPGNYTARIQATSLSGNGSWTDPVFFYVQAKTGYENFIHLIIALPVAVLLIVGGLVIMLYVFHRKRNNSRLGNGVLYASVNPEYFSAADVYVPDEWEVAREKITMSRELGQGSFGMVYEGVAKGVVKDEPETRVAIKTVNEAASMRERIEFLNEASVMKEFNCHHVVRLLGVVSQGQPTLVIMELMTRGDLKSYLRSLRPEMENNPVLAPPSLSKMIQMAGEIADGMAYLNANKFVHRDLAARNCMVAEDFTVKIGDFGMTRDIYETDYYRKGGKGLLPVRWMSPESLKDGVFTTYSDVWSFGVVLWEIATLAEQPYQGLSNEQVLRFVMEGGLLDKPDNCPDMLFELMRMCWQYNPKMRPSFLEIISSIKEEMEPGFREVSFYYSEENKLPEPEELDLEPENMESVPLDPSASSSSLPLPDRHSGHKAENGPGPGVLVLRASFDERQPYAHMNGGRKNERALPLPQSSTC

Row | Structure (SMILES) | IC50 [nM]
1 | CC1(C)C(=O)N(c2ccc(C3(C(F)(F)F)CC3)cc2)C(=O)N1Cc1ccnc2[nH]cc(Br)c12 [Compound 8, 1-((3-bromo-1H-pyrrolo[2,3-b]pyridin-4-yl)methyl)-5,5-dimethyl-3-(4-(1-(trifluoromethyl)cyclopropyl)phenyl)imidazolidine-2,4-dione] | ≤ 500
2 | Cc1cc2c(CN3C(=O)N(c4ccc(C5(C(F)(F)F)CC5)cc4)C(=O)C3(C)C)ccnc2[nH]1 [Compound 9, 5,5-dimethyl-1-((2-methyl-1H-pyrrolo[2,3-b]pyridin-4-yl)methyl)-3-(4-(1-(trifluoromethyl)cyclopropyl)phenyl) imidazolidine-2,4-dione] | ≤ 500
3 | CC1(C)C(=O)N(c2ccc(C3(C(F)(F)F)CC3)cc2)C(=O)N1Cc1ccnc2[nH]c(-c3ccccc3)cc12 [Compound 11, 5,5-dimethyl-1-((2-phenyl-1H-pyrrolo[2,3-b]pyridin-4-yl)methyl)-3-(4-(1-(trifluoromethyl)cyclopropyl)phenyl) imidazolidine-2,4-dione] | ≤ 500
4 | CC1(C)C(=O)N(c2ccc(C#N)cc2)C(=O)N1Cc1ccnc(N)c1 [Compound 80, 4-(3-((2-aminopyridin-4-yl)methyl)-4,4-dimethyl-2,5-dioxoimidazolidin-1-yl)benzonitrile] | 500 to 2000
5 | CC1(C)C(=O)N(c2ccc(C3(C(F)(F)F)CC3)cc2)C(=O)N1Cc1ccnc(N)c1 [Compound 83, 1-((2-aminopyridin-4-yl)methyl)-5,5-dimethyl-3-(4-(1-(trifluoromethyl)cyclopropyl)phenyl)imidazolidine-2,4-dione] | ≤ 500
6 | CC1(C)C(=O)N(c2ccc(C3=CCCCC3)cc2)C(=O)N1Cc1ccnc(N)c1 [Compound 86, 1-((2-aminopyridin-4-yl)methyl)-5,5-dimethyl-3-(2′,3′,4′,5′-tetrahydro-[1,1′-biphenyl]-4-yl)imidazolidine-2,4-dione] | 500 to 2000
7 | CC1(C)C(=O)N(c2ccc(C3CCCCC3)cc2)C(=O)N1Cc1ccnc(N)c1 [Compound 87, 1-((2-aminopyridin-4-yl)methyl)-3-(4-cyclohexylphenyl)-5,5-dimethylimidazolidine-2,4-dione] | 500 to 2000
8 | CC1(C)C(=O)N(c2ccc(C(F)(F)F)cc2)C(=O)N1Cc1ccnc(N)c1 [Compound 91, 1-((2-aminopyridin-4-yl)methyl)-5,5-dimethyl-3-(4-(trifluoromethyl)phenyl)imidazolidine-2,4-dione] | 2000 to 10000
9 | CC1(C)C(=O)N(c2ccc(C(C)(C)C(F)(F)F)cc2)C(=O)N1Cc1ccnc(N)c1 [Compound 95, 1-((2-aminopyridin-4-yl)methyl)-5,5-dimethyl-3-(4-(1,1,1-trifluoro-2-methylpropan-2-yl)phenyl)imidazolidine-2,4-dione] | ≤ 500
10 | CC(C)Nc1cc(CN2C(=O)N(c3ccc([C@H]4C[C@@H]4F)cc3)C(=O)C2(C)C)ccn1 [Compound 96, 3-(4-((1R,2S)-2-fluorocyclopropyl)phenyl)-1-((2-(isopropylamino)pyridin-4-yl)methyl)-5,5-dimethylimidazolidine-2,4-dione] | 500 to 2000
11 | CC(C)Nc1cc(CN2C(=O)N(c3ccc(C4(F)CC4)cc3)C(=O)C2(C)C)ccn1 [Compound 99, 3-(4-(1-fluorocyclopropyl)phenyl)-1-((2-(isopropylamino)pyridin-4-yl)methyl)-5,5-dimethylimidazolidine-2,4-dione] | 500 to 2000
12 | CC(C)Nc1cc(CN2C(=O)N(c3ccc(C4(C)CCC4)cc3)C(=O)C2(C)C)ccn1 [Compound 101, 1-((2-(isopropylamino)pyridin-4-yl)methyl)-5,5-dimethyl-3-(4-(1-methylcyclobutyl)phenyl)imidazolidine-2,4-dione] | ≤ 500
13 | CC1(C)C(=O)N(c2ccc(C3(C(F)(F)F)CC3)cc2)C(=O)N1Cc1ccnc(NCC(F)F)c1 [Compound 103, 1-((2-((2,2-difluoroethyl)amino)pyridin-4-yl)methyl)-5,5-dimethyl-3-(4-(1-(trifluoromethyl)cyclopropyl)phenyl) imidazolidine-2,4-dione] | ≤ 500

Other lines, results leading:

Row | IC50 [nM] | Structure (SMILES)
14 | ≤ 500 | CC1(C)C(=O)N(c2ccc(SC(F)(F)F)cc2)C(=O)N1Cc1ccnc2[nH]cc(Cl)c12 [Compound 5, 1-((3-chloro-1H-pyrrolo[2,3-b]pyridin-4-yl)methyl)-5,5-dimethyl-3-(4-((trifluoromethyl)thio)phenyl)imidazolidine-2,4-dione]
15 | ≤ 500 | CC(C)(C)c1ccc(N2C(=O)N(Cc3ccnc4[nH]cc(Cl)c34)C(C)(C)C2=O)cc1 [Compound 6, 3-(4-(tert-butyl)phenyl)-1-((3-chloro-1H-pyrrolo[2,3-b]pyridin-4-yl)methyl)-5,5-dimethylimidazolidine-2,4-dione]
16 | ≤ 500 | CC1(C)C(=O)N(c2ccc(C3(C(F)(F)F)CC3)cc2)C(=O)N1Cc1ccnc2[nH]ccc12 [Compound 7, 1-((1H-pyrrolo[2,3-b]pyridin-4-yl)methyl)-5,5-dimethyl-3-(4-(1-(trifluoromethyl)cyclopropyl)phenyl)imidazolidine-2,4-dione]
17 | ≤ 500 | Cc1[nH]c2nccc(CN3C(=O)N(c4ccc(C5(C(F)(F)F)CC5)cc4)C(=O)C3(C)C)c2c1Cl [Compound 10, 1-((3-chloro-2-methyl-1H-pyrrolo[2,3-b]pyridin-4-yl)methyl)-5,5-dimethyl-3-(4-(1-(trifluoromethyl)cyclopropyl)phenyl) imidazolidine-2,4-dione]
18 | > 10000 | CC1(C)Cc2cc(CN3C(=O)N(c4ccc(SC(F)(F)F)cc4)C(=O)C3(C)C)cnc2N1 [Compound 14, 1-((2,2-dimethyl-2,3-dihydro-1H-pyrrolo[2,3-b]pyridin-5-yl)methyl)-5,5-dimethyl-3-(4-((trifluoromethyl)thio)phenyl)imidazolidine-2,4-dione]
19 | > 10000 | CC1(C)C(=O)N(c2ccc(SC(F)(F)F)cc2)C(=O)N1Cc1ccnc2[nH]c(C3CC3)cc12 [Compound 15, 1-((2-cyclopropyl-1H-pyrrolo[2,3-b]pyridin-4-yl)methyl)-5,5-dimethyl-3-(4-((trifluoromethyl)thio)phenyl)imidazolidine-2,4-dione]
20 | 2000 to 10000 | CC1(C)C(=O)N(c2ccc(-c3nccs3)cc2)C(=O)N1Cc1ccnc(N)c1 [Compound 81, 1-((2-aminopyridin-4-yl)methyl)-5,5-dimethyl-3-(4-(thiazol-2-yl)phenyl)imidazolidine-2,4-dione]
21 | ≤ 500 | CC1(C)C(=O)N(c2ccc(C3(C#N)CC3)cc2)C(=O)N1Cc1ccnc(N)c1 [Compound 82, 1-(4-(3-((2-aminopyridin-4-yl)methyl)-4,4-dimethyl-2,5-dioxoimidazolidin-1-yl)phenyl)cyclopropane-1-carbonitrile]
22 | 500 to 2000 | CC1(C)C(=O)N(c2ccc(C3CCOC3)cc2)C(=O)N1Cc1ccnc(N)c1 (stereo not shown) [Compound 85, 1-((2-aminopyridin-4-yl)methyl)-5,5-dimethyl-3-(4-(tetrahydrofuran-3-yl)phenyl)imidazolidine-2,4-dione]
23 | ≤ 500 | CC(C)Nc1cc(CN2C(=O)N(c3ccc([Si](C)(C)C)cc3)C(=O)C2(C)C)ccn1 [Compound 89, 1-((2-(isopropylamino)pyridin-4-yl)methyl)-5,5-dimethyl-3-(4-(trimethylsilyl)phenyl)imidazolidine-2,4-dione]
24 | 500 to 2000 | CC1(c2ccc(N3C(=O)N(Cc4ccnc(N)c4)C(C)(C)C3=O)cc2)COC1 [Compound 90, 1-((2-aminopyridin-4-yl)methyl)-5,5-dimethyl-3-(4-(3-methyloxetan-3-yl)phenyl)imidazolidine-2,4-dione]
25 | 500 to 2000 | CC(C)Nc1cc(CN2C(=O)N(c3ccc(I)cc3)C(=O)C2(C)C)ccn1 [Compound 92, 3-(4-iodophenyl)-1-((2-(isopropylamino)pyridin-4-yl)methyl)-5,5-dimethylimidazolidine-2,4-dione]
26 | ≤ 500 | CC1(C)C(=O)N(c2ccc(CC(F)(F)F)cc2)C(=O)N1Cc1ccnc(N)c1 [Compound 94, 1-((2-aminopyridin-4-yl)methyl)-5,5-dimethyl-3-(4-(2,2,2-trifluoroethyl)phenyl)imidazolidine-2,4-dione]
27 | 500 to 2000 | CC1(C)C(=O)N(c2ccc(C3(CO)CC3)cc2)C(=O)N1Cc1ccnc(N)c1 [Compound 100, 1-((2-aminopyridin-4-yl)methyl)-3-(4-(1-(hydroxymethyl)cyclopropyl)phenyl)-5,5-dimethylimidazolidine-2,4-dione]
28 | 500 to 2000 | CC(C)Nc1cc(CN2C(=O)N(c3ccc(C4CC(F)(F)C4)cc3)C(=O)C2(C)C)ccn1 [Compound 102, 3-(4-(3,3-difluorocyclobutyl)phenyl)-1-((2-(isopropylamino)pyridin-4-yl)methyl)-5,5-dimethylimidazolidine-2,4-dione]
